# Values quoted from earlier work, collected in PubChem BioAssay AID1259409 (Chemical Carcinogenesis Research Information System (CCRIS), 2018).
# System: rodent chemically induced tumor inhibition, incidence and multiplicity
# Experiment: CCRIS tumor inhibitor studies
# Settings: Carcinogen: N-METHYL-N-NITROSOUREA, 684-93-5, Route [Inhibitor]: ORAL, Promoter: NONE USED
# Description: The CCRIS database contains chemical records with carcinogenicity, mutagenicity, tumor promotion, and tumor inhibition test results. It was developed by the National Cancer Institute (NCI). Data are derived from studies cited in primary journals, current awareness tools, NCI reports, and other sources. Test results have been reviewed by experts in carcinogenesis and mutagenesis.
# CCRIS provides historical information from the years 1985 - 2011. It is no longer updated.
# This is an archive assay for CCRIS tumor inhibitor studies.
compound,measurement,setting,value
CC1=C(/C=C/C(C)=C/C=C/C(C)=C\C(=O)O)C(C)(C)CCC1,"tumour outcome (control, treated, inhibition, significance)","Dose [Inhibitor]: 25 MG/KG DAILY IN DIET STARTING 1 D AFTER LAST CARCINOGEN INJECTION AND CONTINUING FOR 256 D (STUDY DURATION: 285 D), Species: RAT, Strain/Sex: WISTAR-LEWIS/FEMALE, Target Tissue: Type of Lesion: URINARY BLADDER: PAPILLARY UROTHELIAL TUMOR, Dose [Carcinogen]: 1.5 MG IN 0.15 ML SALINE INJECTED INTO A SURGICALLY EXPOSED BLADDER 1/2 WK FOR A TOTAL OF 3 INJECTIONS","8/30 (27%), 2/23 (9%), 67%, p<0.05"
same,"tumour outcome (control, treated, inhibition, significance)","Dose [Inhibitor]: 120 MG/KG DIET DAILY STARTING 1 WK AFTER LAST CARCINOGEN TREATMENT AND CONTINUING FOR 6 MO (STUDY DURATION: 9 MO), Species: HAMSTER, Strain/Sex: SYRIAN/MALE, Target Tissue: Type of Lesion: TRACHEA: BENIGN EPITHELIAL NEOPLASM, Dose [Carcinogen]: 0.5% IN 1 ML PHOSPHATE-BUFFERED SALINE 1/WK FOR 12 WK","6/63 (10%), 13/61 (21%), -110%, not significant"
same,"tumour outcome (control, treated, inhibition, significance)","Dose [Inhibitor]: 120 MG/KG DIET DAILY STARTING 1 WK AFTER LAST CARCINOGEN TREATMENT AND CONTINUING FOR 6 MO (STUDY DURATION: 9 MO), Species: HAMSTER, Strain/Sex: SYRIAN/MALE, Target Tissue: Type of Lesion: TRACHEA: CARCINOMA, Dose [Carcinogen]: 0.5% IN 1 ML PHOSPHATE-BUFFERED SALINE 1/WK FOR 12 WK","4/63 (6%), 12/61 (20%), -233%, p<0.05"
same,"tumour outcome (control, treated, inhibition, significance)","Dose [Inhibitor]: 120 MG/KG DIET DAILY STARTING 1 WK AFTER LAST CARCINOGEN TREATMENT AND CONTINUING FOR 6 MO (STUDY DURATION: 9 MO), Species: HAMSTER, Strain/Sex: SYRIAN/MALE, Target Tissue: Type of Lesion: TRACHEA: EPITHELIAL NEOPLASM, Dose [Carcinogen]: 0.5% IN 1 ML PHOSPHATE-BUFFERED SALINE 1/WK FOR 12 WK","10/63 (16%), 22/61 (36%), -125%, p<0.05"
same,"tumour outcome (control, treated, inhibition, significance)","Dose [Inhibitor]: 120 MG/KG IN DIET DAILY FOR 6 MO STARTING 1 WK AFTER FINAL CARCINOGEN DOSE (STUDY DURATION: 9 MO), Species: HAMSTER, Strain/Sex: SYRIAN/MALE, Target Tissue: Type of Lesion: TRACHEA: BENIGN EPITHELIAL NEOPLASM, Dose [Carcinogen]: 0.5% SOLUTION FOR 5 SECOND EXPOSURE 1/WK FOR 12 WK","6/63 (10%), 13/61 (21%), -110%, not significant"
same,"tumour outcome (control, treated, inhibition, significance)","Dose [Inhibitor]: 120 MG/KG IN DIET DAILY FOR 6 MO STARTING 1 WK AFTER FINAL CARCINOGEN DOSE (STUDY DURATION: 9 MO), Species: HAMSTER, Strain/Sex: SYRIAN/MALE, Target Tissue: Type of Lesion: TRACHEA: EPITHELIAL NEOPLASM, Dose [Carcinogen]: 0.5% SOLUTION FOR 5 SECOND EXPOSURE 1/WK FOR 12 WK","10/63 (16%), 22/61 (36%), -125%, p<0.05"
same,"tumour outcome (control, treated, inhibition, significance)","Dose [Inhibitor]: 120 OR 300 MG/KG DIET DAILY STARTING ON THE DAY OF THE FIRST INSTILLATION OF CARCINOGEN OR 1 D AFTER THE LAST CARCINOGEN, Species: RAT, Strain/Sex: WISTAR-LEWIS/FEMALE, Target Tissue: Type of Lesion: URINARY BLADDER: CARCINOMA, Dose [Carcinogen]: 1.5 MG IN 0.15 ML OF 0.9% NACL SOLUTION INSTILLED DIRECTLY INTO THE URINARY BLADDER 1/2 WK FOR A TOTAL OF 3 DOSES","10/23 (43%), 27/87 (31%), 28%, p 0.11"
same,"tumour outcome (control, treated, inhibition, significance)","Dose [Inhibitor]: 120 OR 300 MG/KG DIET DAILY STARTING ON THE DAY OF THE FIRST INSTILLATION OF CARCINOGEN OR 1 D AFTER THE LAST CARCINOGEN, Species: RAT, Strain/Sex: WISTAR-LEWIS/FEMALE, Target Tissue: Type of Lesion: URINARY BLADDER: NEOPLASM, Dose [Carcinogen]: 1.5 MG IN 0.15 ML OF 0.9% NACL SOLUTION INSTILLED DIRECTLY INTO THE URINARY BLADDER 1/2 WK FOR A TOTAL OF 3 DOSES","13/23 (57%), 35/87 (40%), 30%, p 0.08"
same,"tumour outcome (control, treated, inhibition, significance)","Dose [Inhibitor]: 120 OR 300 MG/KG DIET DAILY STARTING ON THE DAY OF THE FIRST INSTILLATION OF CARCINOGEN OR 1 D AFTER THE LAST CARCINOGEN, Species: RAT, Strain/Sex: WISTAR-LEWIS/FEMALE, Target Tissue: Type of Lesion: URINARY BLADDER: SQUAMOUS CELL CARCINOMA, Dose [Carcinogen]: 1.5 MG IN 0.15 ML OF 0.9% NACL SOLUTION INSTILLED DIRECTLY INTO THE URINARY BLADDER 1/2 WK FOR A TOTAL OF 3 DOSES","4/23 (17%), 8/87 (9%), 47%, p 0.11"
same,"tumour outcome (control, treated, inhibition, significance)","Dose [Inhibitor]: 120 OR 300 MG/KG DIET DAILY STARTING ON THE DAY OF THE FIRST INSTILLATION OF CARCINOGEN OR 1 D AFTER THE LAST CARCINOGEN, Species: RAT, Strain/Sex: WISTAR-LEWIS/FEMALE, Target Tissue: Type of Lesion: URINARY BLADDER: TRANSITIONAL CELL CARCINOMA, Dose [Carcinogen]: 1.5 MG IN 0.15 ML OF 0.9% NACL SOLUTION INSTILLED DIRECTLY INTO THE URINARY BLADDER 1/2 WK FOR A TOTAL OF 3 DOSES","7/23 (30%), 23/87 (26%), 13%, p 0.23"
